Data as given in patent publication US9073876B2, “Flap modulators” (JANSSEN PHARMACEUTICA NV, priority 2013, dated 2015).

Columns and labels:
[1] = target: human FLAP (Homo sapiens (Human), UniProt P20292); test: FLAP binding assay (HTRF); settings: human FLAP-containing membranes, HTRF format; average of two assay plates, duplicates; read-out: FLAP Binding wild type HTRF Ki
Outline: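 Read-out is the HTRF ratio. Each reported figure averages two assay plates on which samples were tested in duplicate.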

[2] = system: leukotriene pathway in human whole blood (LTB4 levels); test: Human whole blood assay (LTB4); assay type: cell-based; settings: human whole blood diluted 1:1 in RPMI, stimulated with calcium ionophore A23187; single replicate
Outline: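 Blood (heparin) diluted 1:1 RPMI; compound pre-incubation 15 min, 37° Celsius; A23187 7 μg/mL, 30 min, 37° Celsius; plasma LTB4 by commercial kit. IC50 via 4-parameter equation.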

Chain of human FLAP (P20292 whole entry): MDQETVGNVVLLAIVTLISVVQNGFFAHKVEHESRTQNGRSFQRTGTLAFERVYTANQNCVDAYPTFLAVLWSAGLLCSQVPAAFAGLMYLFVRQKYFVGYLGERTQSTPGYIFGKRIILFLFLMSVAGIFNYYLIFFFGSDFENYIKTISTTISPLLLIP

Question: What does the source list for COc1c(C2CCC2)ccc(-c2cnc3c(c2)OCCN3)c1F [Example 184, 7-(4-cyclobutyl-2-fluoro-3-methoxyphenyl)-3,4-dihydro-2H-pyrido[3,2-b][1,4]oxazine]?
Answer: Ki [1]: 14 nM; IC50 [2]: 831 nM

Question: Oc1c(C2CCC2)ccc(-c2cnc3c(c2)OCCN3)c1F [Example 185, 6-cyclobutyl-3-(3,4-dihydro-2H-pyrido[3,2-b][1,4]oxazin-7-yl)-2-fluorophenol] was tested. Which Ki [1] did it give?
Answer: 19.6 nM

Question: What about the IC50 [2] of the same molecule?
Answer: 1010 nM

Question: What does the source list for Fc1c(-c2cnc3c(c2)OCCN3)ccc(C2CCC2)c1OCc1ccccc1 [Example 186, 7-[3-(Benzyloxy)-4-cyclobutyl-2-fluorophenyl]-3,4-dihydro-2H-pyrido[3,2-b][1,4]oxazine]?
Answer: Ki [1]: 20.5 nM; IC50 [2]: 531 nM

Question: With N#Cc1cccc(COc2c(C3CCC3)ccc(-c3cnc4c(c3)OCCN4)c2F)c1 [Example 187, 3-{[6-Cyclobutyl-3-(3,4-dihydro-2H-pyrido[3,2-b][1,4]oxazin-7-yl)-2-fluorophenoxy]-methyl}-benzonitrile] as the molecule, how does the Ki [1] read?
Answer: 12 nM

Question: And the IC50 [2]?
Answer: 355 nM

Question: What does the source list for CS(=O)(=O)c1cccc(COc2c(C3CCC3)ccc(-c3cnc4c(c3)OCCN4)c2F)c1 [Example 188, 7-(4-Cyclobutyl-2-fluoro-3-{[3-(methylsulfonyl)-benzyl]oxy}phenyl)-3,4-dihydro-2H-pyrido[3,2-b][1,4]oxazine]?
Answer: Ki [1]: 8.6 nM; IC50 [2]: 1100 nM

Question: CS(=O)(=O)c1ccc(COc2c(C3CCC3)ccc(-c3cnc4c(c3)OCCN4)c2F)cc1 [Example 189, 7-(4-Cyclobutyl-2-fluoro-3-{[4-(methylsulfonyl)-benzyl]-oxy}-phenyl)-3,4-dihydro-2H-pyrido[3,2-b][1,4]oxazine] was tested. Which Ki [1] did it give?
Answer: 9.8 nM

Question: And the IC50 [2]?
Answer: 1140 nM

Question: How did the Ki [1] turn out when N#Cc1ccc(COc2c(C3CCC3)ccc(-c3cnc4c(c3)OCCN4)c2F)cc1 [Example 190, 4-{[6-Cyclobutyl-3-(3,4-dihydro-2H-pyrido[3,2-b][1,4]oxazin-7-yl)-2-fluorophenoxy]-methyl}-benzonitrile] was run?
Answer: 47.2 nM

Question: What about the IC50 [2] of the same molecule?
Answer: 1060 nM

Question: What does the source list for Fc1c(-c2cnc3c(c2)OCCN3)ccc(C2CCC2)c1OCc1ccc(C(F)(F)F)cc1 [Example 191, 7-(4-Cyclobutyl-2-fluoro-3-{[4-(trifluoromethyl)benzyl]oxy}phenyl)-3,4-dihydro-2H-pyrido[3,2-b][1,4]oxazine]?
Answer: Ki [1]: 250 nM; IC50 [2]: 3430 nM

Question: Which Ki [1] does the source give for NC(=O)c1cccc(COc2c(C3CCC3)ccc(-c3cnc4c(c3)OCCN4)c2F)c1 [Example 192, 3-{[6-Cyclobutyl-3-(3,4-dihydro-2H-pyrido[3,2-b][1,4]oxazin-7-yl)-2-fluorophenoxy]-methyl}-benzamide] here?
Answer: 5.3 nM

Question: And the IC50 [2]?
Answer: 418 nM

Question: Which results are given for NC(=O)c1ccc(COc2c(C3CCC3)ccc(-c3cnc4c(c3)OCCN4)c2F)cc1 [Example 193, 4-{[6-Cyclobutyl-3-(3,4-dihydro-2H-pyrido[3,2-b][1,4]oxazin-7-yl)-2-fluorophenoxy]-methyl}-benzamide]?
Answer: Ki [1]: 3.7 nM; IC50 [2]: 769 nM

Question: Which results are given for Fc1c(-c2cnc3c(c2)OCCN3)ccc(C2CCC2)c1Oc1cccc(C(F)(F)F)n1 [Example 194, 7-(4-Cyclobutyl-2-fluoro-3-{[6-(trifluoromethyl)pyridin-2-yl]oxy}phenyl)-3,4-dihydro-2H-pyrido[3,2-b][1,4]oxazine]?
Answer: Ki [1]: 2.9 nM; IC50 [2]: 168 nM

Question: How did the Ki [1] turn out when O=C(O)Cc1ccc(COc2c(C3CCC3)ccc(-c3cnc4c(c3)OCCN4)c2F)cc1 [Example 195, (4-{[6-cyclobutyl-3-(3,4-dihydro-2H-pyrido[3,2-b][1,4]oxazin-7-yl)-2-fluorophenoxy]methyl}phenyl)acetic acid] was run?
Answer: 2.2 nM

Question: What about the IC50 [2] of the same molecule?
Answer: 446 nM

Question: Which Ki [1] does the source give for O=C(O)c1ccc(COc2c(C3CCC3)ccc(-c3cnc4c(c3)OCCN4)c2F)cc1 [Example 196, 4-{[6-Cyclobutyl-3-(3,4-dihydro-2H-pyrido[3,2-b][1,4]oxazin-7-yl)-2-fluorophenoxy]methyl}benzoic acid] here?
Answer: 4.1 nM

Question: And the IC50 [2]?
Answer: 871 nM

Question: Which results are given for Oc1c(C2CCC2)ccc(-c2cnc3c(c2)CCN3)c1F [Example 199, 6-Cyclobutyl-3-(2,3-dihydro-1H-pyrrolo[2,3-b]pyridin-5-yl)-2-fluorophenol]?
Answer: Ki [1]: 24.2 nM; IC50 [2]: 1060 nM

Question: Which Ki [1] does the source give for CC(C)(C)c1ccc(-c2cnc(N)cn2)c(F)c1O[Si](C)(C)C(C)(C)C [Example 200, 5-(4-tert-Butyl-3-{[tert-butyl(dimethyl)silyl]oxy}-2-fluorophenyl)pyrazin-2-amine] here?
Answer: 155 nM

Question: And the IC50 [2]?
Answer: 1360 nM

Question: CC(C)(C)c1ccc(-c2cnc(N)cn2)c(F)c1Oc1ncccn1 [Example 201, 5-[4-tert-Butyl-2-fluoro-3-(pyrimidin-2-yloxy)phenyl]pyrazin-2-amine] was tested. Which Ki [1] did it give?
Answer: 8.5 nM

Question: What about the IC50 [2] of the same molecule?
Answer: 51.8 nM

Question: CC(C)(C)c1ccc(-c2cnc(N)cn2)c(F)c1Oc1nccc(N)n1 [Example 203, 2-[3-(5-Aminopyrazin-2-yl)-6-tert-butyl-2-fluorophenoxy]pyrimidin-4-amine] was tested. Which Ki [1] did it give?
Answer: 6.9 nM

Question: What about the IC50 [2] of the same molecule?
Answer: 30.8 nM

Question: For COc1cc(Oc2c(C(C)(C)C)ccc(-c3cnc(N)cn3)c2F)ncn1 [Example 204, 5-{4-tert-Butyl-2-fluoro-3-[(6-methoxypyrimidin-4-yl)oxy]phenyl}pyrazin-2-amine], which Ki [1] is on record?
Answer: 81.5 nM

Question: And the IC50 [2]?
Answer: 171 nM

Question: How did the Ki [1] turn out when COc1c(C(C)(C)C)ccc(-c2cnc(N)cn2)c1F [Example 205, 5-(4-tert-Butyl-2-fluoro-3-methoxyphenyl)pyrazin-2-amine] was run?
Answer: 40.2 nM

Question: And the IC50 [2]?
Answer: 150 nM

Question: What does the source list for CC(C)(C)c1ccc(-c2cnc(N)nc2)c(F)c1Oc1ncccn1 [Example 207, 5-[4-tert-Butyl-2-fluoro-3-(pyrimidin-2-yloxy)phenyl]pyrimidin-2-amine]?
Answer: Ki [1]: 47.4 nM; IC50 [2]: 72.6 nM

Question: CC(C)(C)c1ccc(-c2cnc(N)nc2)c(F)c1Oc1cc(N)ncn1 [Example 208, 5-{3-[(6-Aminopyrimidin-4-yl)oxy]-4-tert-butyl-2-fluorophenyl}pyrimidin-2-amine] was tested. Which Ki [1] did it give?
Answer: 46.5 nM

Question: And the IC50 [2]?
Answer: 215 nM

Question: Which results are given for CC(C)(C)c1ccc(-c2cnc(N)nc2)c(F)c1Oc1nccc(N)n1 [Example 209, 5-{3-[(4-Aminopyrimidin-2-yl)oxy]-4-tert-butyl-2-fluorophenyl}pyrimidin-2-amine]?
Answer: Ki [1]: 23.3 nM; IC50 [2]: 51.1 nM

Question: Which results are given for Nc1cnc(-c2ccc(C3CCCC3)c(OCc3ccccc3)c2F)cn1 [Example 212, 5-[3-(Benzyloxy)-4-cyclopentyl-2-fluorophenyl]pyrazin-2-amine]?
Answer: Ki [1]: 64 nM; IC50 [2]: 1100 nM

Question: With CC(C)Oc1c(C2CCCC2)ccc(-c2cnc(N)cn2)c1F [Example 213, 5-[4-Cyclopentyl-2-fluoro-3-(1-methylethoxy)phenyl]pyrazin-2-amine] as the molecule, how does the Ki [1] read?
Answer: 92.1 nM

Question: And the IC50 [2]?
Answer: 1010 nM

Question: Fc1c(-c2cnc3[nH]ccc3n2)ccc(C2CCCC2)c1OCc1ccccc1 [Example 214, 2-[3-(Benzyloxy)-4-cyclopentyl-2-fluorophenyl]-5H-pyrrolo[2,3-b]pyrazine] was tested. Which Ki [1] did it give?
Answer: 30.8 nM

Question: And the IC50 [2]?
Answer: 1090 nM

Question: With COc1c(C2CCC2)ccc(-c2cnc(N)c(C#N)n2)c1F [Example 218, 3-amino-6-(4-cyclobutyl-2-fluoro-3-methoxyphenyl)-pyrazine-2-carbonitrile] as the molecule, how does the Ki [1] read?
Answer: 77.3 nM

Question: And the IC50 [2]?
Answer: > 5000 nM

Question: With Oc1c(C2CCC2)ccc(-c2cnc3[nH]ccc3c2)c1F [Example 220, 6-cyclobutyl-2-fluoro-3-(1H-pyrrolo[2,3-b]pyridin-5-yl)phenol] as the molecule, how does the Ki [1] read?
Answer: 21.8 nM

Question: What about the IC50 [2] of the same molecule?
Answer: 1120 nM

Question: For Nc1cnc(-c2ccc(C3CCC3)c(Oc3ccnc(Oc4c(C5CCC5)ccc(-c5cnc(N)cn5)c4F)n3)c2F)cn1 [Example 224, 5,5′-((pyrimidine-2,4-diylbis(oxy))bis(4-cyclobutyl-2-fluoro-3,1-phenylene))bis(pyrazin-2-amine)], which Ki [1] is on record?
Answer: 23.2 nM

Question: And the IC50 [2]?
Answer: 287 nM

Question: What does the source list for Fc1c(-c2cnc3c(c2)OCCN3)ccc(C2CCC2)c1Oc1ncccn1 [Example 225, 7-(4-cyclobutyl-2-fluoro-3-(pyrimidin-2-yloxy)phenyl)-3,4-dihydro-2H-pyrido[3,2-b][1,4]oxazine]?
Answer: Ki [1]: 2.5 nM; IC50 [2]: 68.4 nM

Question: How did the Ki [1] turn out when Nc1ccnc(Oc2c(C3CCC3)ccc(-c3cnc4c(c3)OCCN4)c2F)n1 [Example 226, 2-(6-cyclobutyl-3-(3,4-dihydro-2H-pyrido[3,2-b][1,4]oxazin-7-yl)-2-fluorophenoxy)pyrimidin-4-amine] was run?
Answer: 1.4 nM

Question: What about the IC50 [2] of the same molecule?
Answer: 90.1 nM

Question: COc1cc(Oc2c(C3CCC3)ccc(-c3cnc4c(c3)OCCN4)c2F)ncn1 [Example 227, 7-(4-cyclobutyl-2-fluoro-3-((6-methoxypyrimidin-4-yl)oxy)phenyl)-3,4-dihydro-2H-pyrido[3,2-b][1,4]oxazine] was tested. Which Ki [1] did it give?
Answer: 8.5 nM

Question: And the IC50 [2]?
Answer: 332 nM

Question: What does the source list for COc1cc(Oc2c(C3CCC3)ccc(-c3cnc4[nH]ccc4n3)c2F)ncn1 [Example 229, 2-(4-cyclobutyl-2-fluoro-3-((6-methoxypyrimidin-4-yl)oxy)phenyl)-5H-pyrrolo[2,3-b]pyrazine]?
Answer: Ki [1]: 7.7 nM; IC50 [2]: 408 nM

Question: Which Ki [1] does the source give for Fc1c(-c2cnc3[nH]ccc3n2)ccc(C2CCC2)c1Oc1ncccn1 [Example 230, 2-(4-cyclobutyl-2-fluoro-3-(pyrimidin-2-yloxy)phenyl)-5H-pyrrolo[2,3-b]pyrazine] here?
Answer: 2.5 nM

Question: And the IC50 [2]?
Answer: 238 nM

Question: Which Ki [1] does the source give for N#Cc1nccc(Oc2c(C3CCC3)ccc(-c3cnc(N)cn3)c2F)n1 [Example 234, 4-(3-(5-Aminopyrazin-2-yl)-6-cyclobutyl-2-fluorophenoxy)pyrimidine-2-carbonitrile] here?
Answer: 1300 nM

Question: What about the IC50 [2] of the same molecule?
Answer: > 10000 nM

Question: What does the source list for Cc1nc(Oc2c(C3CCC3)ccc(-c3cnc(N)cn3)c2F)cc(N(C)C)n1 [Example 235, 6-(3-(5-Aminopyrazin-2-yl)-6-cyclobutyl-2-fluorophenoxy)-N,N,2-trimethylpyrimidin-4-amine]?
Answer: Ki [1]: 3.3 nM; IC50 [2]: 113 nM
